Each structure is given as a SMILES string.

Data set [1] in a line: LD50 in mice following i.v. administration. It is filed as organism-based. The settings on record: mouse, in vivo, iv.
Another data set relates to Mus musculus. Put plainly: Induction of mydriasis in mice following s.c. administration. It is filed as functional. The conditions noted are these: sc.

By LD50 is commonly meant the dose expected to kill half of the subjects tested. A lower LD50 goes with greater toxicity. In general, ED50 refers to the dose at which the effect has come halfway, by size or by number of responders. A high value points to weaker potency. In turn, `CN1C2CCC1[C@H](OC(=O)N1c3ccccc3Sc3cccnc31)CC2` (single isomer, unassigned; (+)) yielded an LD50 in data set [1] of 32 mg/kg. This compound also registered an ED50 with Mus musculus of 5.6 mg/kg.
The corresponding values for `CN1C2CCC1[C@H](OC(=O)C(CO)c1ccccc1)CC2` (single isomer, unassigned; (+)) are 50 mg/kg and 0.1 mg/kg.
As to `CCCC(C(=O)O[C@@H]1CCC2CCC1N2C)(c1ccccc1)c1ccccc1` (single isomer, unassigned; (+)), the LD50 in data set [1] was 18 mg/kg. In the data set with Mus musculus, this compound yielded an ED50 above 10 mg/kg.
In the case of `CN1C2CCC1[C@H](OC(=O)C1c3ccccc3CCc3ccccc31)CC2` (single isomer, unassigned; (+)), the LD50 in data set [1] is 32 mg/kg. In the data set on Mus musculus, this compound displayed an ED50 of 5.6 mg/kg.
The corresponding values for `COc1cc(C(=O)O[C@@H]2CCC3CCC2N3C)cc(OC)c1OC` (single isomer, unassigned; (+)) are 56 mg/kg and 32 mg/kg.
`CCCOC(C(=O)O[C@@H]1CCC2CCC1N2C)(c1ccccc1)c1ccccc1` (single isomer, unassigned; (+)): in data set [1], the LD50 turned out to be 22 mg/kg. For the same compound, the ED50 in the data set on Mus musculus was 0.94 mg/kg.
The corresponding values for `CN1C2CCC1[C@H](OC(=O)C(F)(c1ccccc1)c1ccccc1)CC2` (single isomer, unassigned; (+)) are 36 mg/kg and 0.25 mg/kg.
Turning to `CN1C2CCC1[C@H](OC(=O)C13CC4CC(CC(C4)C1)C3)CC2` (single isomer, unassigned; (+)), the LD50 in data set [1] was determined as 32 mg/kg. The same compound gave an ED50 with Mus musculus above 10 mg/kg.
Consider `CN1C2CCC1[C@H](OC(=O)c1cc(=O)c3ccccc3o1)CC2` (single isomer, unassigned; (+)), for which the LD50 in data set [1] worked out at 100 mg/kg. In the data set on Mus musculus, this compound showed an ED50 above 10 mg/kg.
As for `CN1C2CCC1[C@H](OC(=O)CC(O)(c1ccccc1)c1ccccc1)CC2` (single isomer, unassigned; (+)), in data set [1], the LD50 was found to be 18 mg/kg. Besides, the ED50 with Mus musculus is above 10 mg/kg.
`CN1C2CCC1[C@H](OC(=O)C(Cl)(c1ccccc1)c1ccccc1)CC2.Cl` (single isomer, unassigned; (+)) had a 50% lethal dose (LD50) in data set [1] of 22 mg/kg. The ED50 in the data set with Mus musculus was 0.03 mg/kg.
The like results for `CN1C2CCC1[C@H](OC(=O)C(OCc1ccccc1)(c1ccccc1)c1ccccc1)CC2.Cl` (single isomer, unassigned; (+)) were, in that order, 56 mg/kg and 5.6 mg/kg.
On to `CN1C2CCC1[C@@H](OC(=O)C1c3ccccc3CCc3ccccc31)CC2` (single isomer, unassigned; (-)), for which the LD50 in data set [1] worked out at 18 mg/kg. Further, the ED50 in the data set with Mus musculus was above 10 mg/kg.
The corresponding values for `COc1cc(C(=O)O[C@H]2CCC3CCC2N3C)cc(OC)c1OC` (single isomer, unassigned; (-)) are 18 mg/kg and above 10 mg/kg.
With `CN1[C@@H]2CC[C@H]1C[C@@H](OC(=O)C(CO)c1ccccc1)C2` (stereo not given in full) [ATROPINE], in the data set with Mus musculus, the 50% effect level (ED50) was put at a dose of 0.061 mg/kg.
In the data set on Mus musculus, `CN1[C@@H]2C[C@@H](OC(=O)[C@H](CO)c3ccccc3)C[C@H]1[C@@H]1O[C@@H]12` [SCOPOLAMINE] yielded an ED50 of 0.012 mg/kg.

Source of the values: ChEMBL document CHEMBL1122420, “Parasympatholytic (anticholinergic) esters of the isomeric 2-tropanols. 2. Non-glycolates” (J Med Chem, 1983).
